Results reported in ChEMBL document CHEMBL5126652, “Boron-Containing Pyrazole Compounds as JAK Inhibitors for Treating Inflammation, Autoimmune Diseases, and Cancer” (ACS Med Chem Lett, 2022).

target: Tyrosine-protein kinase JAK1 (Homo sapiens, UniProt P23458); assay: Inhibition of JAK1 (unknown origin) preincubated for 20 mins followed by 33P-ATP addition and measured after 2 hrs by filter binding assay
Sequence (P23458 whole entry): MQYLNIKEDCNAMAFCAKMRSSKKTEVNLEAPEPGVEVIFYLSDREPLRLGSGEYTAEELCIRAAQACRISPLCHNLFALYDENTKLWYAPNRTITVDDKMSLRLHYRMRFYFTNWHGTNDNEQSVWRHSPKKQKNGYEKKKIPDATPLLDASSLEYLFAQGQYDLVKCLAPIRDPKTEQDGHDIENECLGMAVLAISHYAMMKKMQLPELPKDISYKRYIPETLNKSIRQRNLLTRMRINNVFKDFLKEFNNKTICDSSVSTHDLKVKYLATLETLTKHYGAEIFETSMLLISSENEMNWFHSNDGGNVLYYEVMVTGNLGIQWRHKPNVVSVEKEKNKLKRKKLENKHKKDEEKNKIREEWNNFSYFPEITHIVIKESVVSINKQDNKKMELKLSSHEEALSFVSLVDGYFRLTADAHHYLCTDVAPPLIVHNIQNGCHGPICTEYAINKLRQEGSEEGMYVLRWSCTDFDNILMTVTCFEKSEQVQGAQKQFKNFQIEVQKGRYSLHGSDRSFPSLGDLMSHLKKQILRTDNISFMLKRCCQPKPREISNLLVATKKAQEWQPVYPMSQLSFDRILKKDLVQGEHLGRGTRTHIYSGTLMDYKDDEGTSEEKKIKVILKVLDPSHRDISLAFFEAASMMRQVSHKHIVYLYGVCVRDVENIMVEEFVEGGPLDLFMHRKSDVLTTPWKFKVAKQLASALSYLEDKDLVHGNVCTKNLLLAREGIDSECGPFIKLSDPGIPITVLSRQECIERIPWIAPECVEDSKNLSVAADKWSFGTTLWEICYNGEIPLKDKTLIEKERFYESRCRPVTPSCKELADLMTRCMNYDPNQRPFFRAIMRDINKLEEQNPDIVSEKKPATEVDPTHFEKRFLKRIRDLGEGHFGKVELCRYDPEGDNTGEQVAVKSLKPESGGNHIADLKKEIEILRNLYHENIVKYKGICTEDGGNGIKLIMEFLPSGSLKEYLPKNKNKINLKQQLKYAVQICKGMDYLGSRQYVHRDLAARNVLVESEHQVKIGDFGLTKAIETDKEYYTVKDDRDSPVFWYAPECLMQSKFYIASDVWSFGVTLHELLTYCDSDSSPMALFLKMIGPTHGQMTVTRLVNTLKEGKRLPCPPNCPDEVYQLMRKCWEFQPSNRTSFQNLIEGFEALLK

| SMILES | IC50 |
| --- | --- |
| N#CC1CCOCC1n1cc(C(N)=O)c(Nc2cc(Cl)c3c(c2)COB3O)n1 (stereo unspecified) | < 10 nM |
| N#CC1CCCC1n1cc(C(N)=O)c(Nc2ccc3c(c2)COB3O)n1 (stereo unspecified) | < 10 nM |
| N#CC1CCOCC1n1cc(C(N)=O)c(Nc2ccc3c(c2)C2CC2B(O)O3)n1 (stereo unspecified) | < 10 nM |

The next lines start with the values.

| IC50 | SMILES |
| --- | --- |
| < 10 nM | N#CC1CCOCC1n1cc(C(N)=O)c(Nc2ccc3c(c2)C(Cl)=CB(O)O3)n1 (stereo unspecified) |
| < 10 nM | N#CC1CCCC1n1cc(C(N)=O)c(Nc2ccc3c(c2)C=CB(O)O3)n1 (stereo unspecified) |
| < 10 nM | N#CC1CCOCC1n1cc(C(N)=O)c(Nc2cc(F)c3c(c2)COB3O)n1 (stereo unspecified) |
